Data as given in ChEMBL document CHEMBL4393738, “Design of hybrid molecules as antimycobacterial compounds: Synthesis of isoniazid-naphthoquinone derivatives and their activity against susceptible and resistant strains of Mycobacterium tuberculosis” (Bioorg Med Chem, 2019).
≈ marks a conversion by molar mass, not a printed value.

What was measured:
Type in all cases: functional
[1] = test system: Mycobacterium tuberculosis; test: Antimycobacterial activity against isoniazid resistant Mycobacterium tuberculosis ATCC 35822 after 7 days by resazurin microtiter assay; settings: ATCC 35822, 168 h
[2] = test system: Mycobacterium tuberculosis; test: Antimycobacterial activity against isoniazid resistant Mycobacterium tuberculosis H37Rv ATCC 27294 measured after 7 days by resazurin microtiter assay; settings: H37Rv ATCC 27294, 168 h
[3] = test system: Mycobacterium tuberculosis; test: Antimycobacterial activity against isoniazid resistant Mycobacterium tuberculosis measured after 7 days by resazurin microtiter assay; settings: 168 h

Structure (SMILES)	MIC [1] [µg/mL]	MIC [2] [µg/mL]	MIC [3] [µg/mL]
CC1(C)OC2=C(CC1Br)C(=O)C(=O)c1ccccc12 (stereo not drawn)	6.25 (≈ 19.5 µM)	6.25 (≈ 19.5 µM)	3.12 (≈ 9.71 µM)
CC1(C)OC2=C(C(=O)C(=O)c3ccccc32)C1Nc1ccccc1 (stereo not drawn)	3.12 (≈ 9.77 µM)	3.12 (≈ 9.77 µM)	6.25 (≈ 19.6 µM)
O=C1C(=O)c2ccccc2C2=C1CC(Cn1cc(-c3ccccc3)nn1)O2 (stereo not drawn)	25 (≈ 70 µM)	12.5 (≈ 35 µM)	25 (≈ 70 µM)
CC1CC2=C(O1)c1ccccc1/C(=N/NC(=O)c1ccncc1)C2=O (stereo not drawn)	12.5 (≈ 37.5 µM)	12.5 (≈ 37.5 µM)	25 (≈ 75 µM)
CC1(C)OC2=C(CC1I)C(=O)C(=O)c1ccccc12 (stereo not drawn)	3.12 (≈ 8.47 µM)	3.12 (≈ 8.47 µM)	6.25 (≈ 17 µM)
CC1(C)OC2=C(C(=O)/C(=N\NC(=O)c3ccncc3)c3ccccc32)[C@H](n2cc(-c3ccccc3)nn2)[C@H]1Br	200 (≈ 343 µM)	200 (≈ 343 µM)	> 200
CC1(C)CC2=C(O1)c1ccccc1/C(=N/NC(=O)c1ccncc1)C2=O	50 (≈ 144 µM)	0.78 (≈ 2.25 µM)	6.25 (≈ 18 µM)
CC1(C)OC2=C(CC1Br)C(=O)/C(=N\NC(=O)c1ccncc1)c1ccccc12 (stereo not drawn)	12.5 (≈ 28.4 µM)	12.5 (≈ 28.4 µM)	12.5 (≈ 28.4 µM)
CC1(C)OC2=C(C(=O)/C(=N\NC(=O)c3ccncc3)c3ccccc32)C1n1cc(-c2ccccc2)nn1 (stereo not drawn)	12.5 (≈ 25.5 µM)	12.5 (≈ 25.5 µM)	12.5 (≈ 25.5 µM)
CC1(C)OC2=C(C(=O)C(=O)c3ccccc32)C1n1cc(-c2ccccc2)nn1 (stereo not drawn)	25 (≈ 67.3 µM)	6.25 (≈ 16.8 µM)	25 (≈ 67.3 µM)
O=C1C2=C(OC(Cn3cc(-c4ccccc4)nn3)C2)c2ccccc2/C1=N/NC(=O)c1ccncc1 (stereo not drawn)	50 (≈ 105 µM)	12.5 (≈ 26.2 µM)	50 (≈ 105 µM)
CC1(C)OC2=C(C(=O)/C(=N\NC(=O)c3ccncc3)c3ccccc32)C1Nc1ccccc1 (stereo not drawn)	100 (≈ 228 µM)	25 (≈ 57 µM)	25 (≈ 57 µM)
CC1(C)OC2=C(C(=O)/C(=N\NC(=O)c3ccncc3)c3ccccc32)C1O (stereo not drawn)	200 (≈ 550 µM)	6.25 (≈ 17.2 µM)	100 (≈ 275 µM)
CC1(C)CC2=C(O1)/C(=N\NC(=O)c1ccncc1)c1ccccc1C2=O	100 (≈ 288 µM)	25 (≈ 72 µM)	200 (≈ 576 µM)
CC1(C)CCC2=C(O1)c1ccccc1/C(=N/NC(=O)c1ccncc1)C2=O	50 (≈ 138 µM)	0.78 (≈ 2.16 µM)	6.25 (≈ 17.3 µM)
CC1(C)OC2=C(CC1I)C(=O)/C(=N\NC(=O)c1ccncc1)c1ccccc12 (stereo not drawn)	100 (≈ 205 µM)	100 (≈ 205 µM)	100 (≈ 205 µM)
CC1(C)CCC2=C(O1)/C(=N\NC(=O)c1ccncc1)c1ccccc1C2=O	> 200	> 200	> 200
CC1(C)OC2=C(C(=O)C(=O)c3ccccc32)C1O (stereo not drawn)	25 (≈ 102 µM)	12.5 (≈ 51.2 µM)	25 (≈ 102 µM)
CC1(C)CC2=C(O1)C(=O)c1ccccc1C2=O	25 (≈ 110 µM)	12.5 (≈ 54.8 µM)	25 (≈ 110 µM)
CC1(C)OC2=C(C(=O)C(=O)c3ccccc32)[C@H](n2cc(-c3ccccc3)nn2)[C@H]1Br (racemic)	6.25 (≈ 13.5 µM)	1.56 (≈ 3.36 µM)	12.5 (≈ 26.9 µM)
CC1(C)CCC2=C(O1)C(=O)c1ccccc1C2=O [ALPHA-LAPACHONE]		103 (≈ 426 µM)	
NNC(=O)c1ccncc1 [ISONIAZID]	2 (≈ 14.6 µM)	0.03 (≈ 0.219 µM)	0.25 (≈ 1.82 µM)
CC1(C)CCC2=C(O1)c1ccccc1C(=O)C2=O [LAPACHONE]	3.12 (≈ 12.9 µM)	1.56 to 6.25 (≈ 6.44 to 25.8 µM)	6.25 (≈ 25.8 µM)
CC1(C)CC2=C(O1)c1ccccc1C(=O)C2=O [NOR-BETA-LAPACHONE]	12.5 (≈ 54.8 µM)	3.12 (≈ 13.7 µM)	6.25 (≈ 27.4 µM)
CO[C@H]1/C=C/O[C@@]2(C)Oc3c(C)c(O)c4c(O)c(c(/C=N/N5CCN(C)CC5)c(O)c4c3C2=O)NC(=O)/C(C)=C\C=C\[C@H](C)[C@H](O)[C@@H](C)[C@@H](O)[C@@H](C)[C@H](OC(C)=O)[C@@H]1C [RIFAMPIN]	≤ 0.03	≤ 0.03	> 8
